Values of other authors in patent publication US8592371B2, “Aminotetrahydropyrans as dipeptidyl peptidase-IV inhibitors for the treatment or prevention of diabetes” (Merck Sharp & Dohme Corp, priority 2008, dated 2013).

Columns and labels:
[1] = tested on: hematopoiesis; details: mouse, cyclophosphamide-induced neutropenia; cited from earlier work
[2] = biological target: DPP-4 (Homo sapiens (Human), UniProt P27487); details: cited from earlier work
[3] = tested on: cardiac allograft; details: rats; from day 7 to day 14; cited from earlier work

DPP-4, sequence (P27487 39-766, species assumed): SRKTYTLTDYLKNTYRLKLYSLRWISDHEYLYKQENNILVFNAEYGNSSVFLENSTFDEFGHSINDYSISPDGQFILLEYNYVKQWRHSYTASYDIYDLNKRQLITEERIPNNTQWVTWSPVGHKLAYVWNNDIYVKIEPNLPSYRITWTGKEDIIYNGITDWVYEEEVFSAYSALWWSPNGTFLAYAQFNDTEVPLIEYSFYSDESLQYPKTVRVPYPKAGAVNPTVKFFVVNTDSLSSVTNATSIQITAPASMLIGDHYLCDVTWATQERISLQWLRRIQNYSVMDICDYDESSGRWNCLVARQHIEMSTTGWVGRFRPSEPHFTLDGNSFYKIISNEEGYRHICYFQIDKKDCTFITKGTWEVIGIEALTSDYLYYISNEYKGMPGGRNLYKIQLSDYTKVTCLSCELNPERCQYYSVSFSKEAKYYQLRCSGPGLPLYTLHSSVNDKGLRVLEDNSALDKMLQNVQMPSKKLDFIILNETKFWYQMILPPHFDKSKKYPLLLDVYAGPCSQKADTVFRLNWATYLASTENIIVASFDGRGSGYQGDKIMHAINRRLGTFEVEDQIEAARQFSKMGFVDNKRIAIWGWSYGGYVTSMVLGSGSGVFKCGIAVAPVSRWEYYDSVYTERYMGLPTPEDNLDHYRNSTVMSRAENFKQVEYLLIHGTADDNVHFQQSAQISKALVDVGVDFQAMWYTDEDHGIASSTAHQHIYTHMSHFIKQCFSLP

CC(C)[C@H](N)C(=O)N1CCC[C@H]1B(O)O [Val-Boro-Pro]
hematopoiesis [1]: stimulated hematopoiesis

diprotin A
degradation of GRF in plasma to GRF[3-44] [2]: prevented

CC(C)N1CCC(c2ccccc2)(c2ccccc2)CC1 [Prodipine, Pro-Pro-diphenyl-phosphonate]
cardiac allograft survival [3]: double
